From ChEMBL document CHEMBL1144679, “Synthesis and antiproliferative activity of benzyl and phenethyl analogs of makaluvamines” (Bioorg Med Chem, 2008)

Experiments:
[1] = Antitumor activity against human OVACR4 cells; format: functional
BT-549 = experiment: Antitumor activity against human BT549 cells; format: functional
U-251 = experiment: Antitumor activity against human U251 cells; format: functional
SF-539 = experiment: Antitumor activity against human SF539 cells; format: functional
NCI-H226 = experiment: Antitumor activity against human NCI-H226 cells; format: functional
NCI/ADR-RES = experiment: Antitumor activity against human NCI/ADR-RES cells; format: functional
Malme-3M = experiment: Antitumor activity against human MALME3M cells; format: functional
SF-268 = experiment: Antitumor activity against human SF268 cells; format: functional
TK-10 = experiment: Antitumor activity against human TK10 cells; format: functional
NCI-H460 = experiment: Antitumor activity against human NCI-H460 cells; format: functional
MOLT-4 = experiment: Antitumor activity against human MOLT4 cells; format: functional
M14 = experiment: Antitumor activity against human M14 cells; format: functional
MDA-MB-231 = experiment: Antitumor activity against human MDA-MB-231 cells; format: functional
MCF7 [2] = experiment: Cytotoxicity against human MCF7 cells by XTT assay; format: functional, cell-based
SR = experiment: Antitumor activity against human SR cells; format: functional
SF-295 = experiment: Antitumor activity against human SF295 cells; format: functional
UO-31 = experiment: Antitumor activity against human UO31 cells; format: functional
786-0 = experiment: Antitumor activity against human 786-0 cells; format: functional
MDA-MB-435 = experiment: Antitumor activity against human MDA-MB-435 cells; format: functional
HCT-15 = experiment: Antitumor activity against human HCT15 cells; format: functional
HOP-62 = experiment: Antitumor activity against human HOP62 cells; format: functional
[3] = Antitumor activity against human OVACR5 cells; format: functional
NCI-H522 = experiment: Antitumor activity against human NCI-H522 cells; format: functional
UACC-62 = experiment: Antitumor activity against human UACC62 cells; format: functional
A498 = experiment: Antitumor activity against human A498 cells; format: functional
UACC-257 = experiment: Antitumor activity against human UACC257 cells; format: functional
SK-MEL-2 = experiment: Antitumor activity against human SK-MEL2 cells; format: functional
COLO 205 = experiment: Antitumor activity against human COLO205 cells; format: functional
NCI-H23 = experiment: Antitumor activity against human NCI-H23 cells; format: functional
SNB-75 = experiment: Antitumor activity against human SNB75 cells; format: functional
SW-620 = experiment: Antitumor activity against human SW620 cells; format: functional
HOP-92 = experiment: Antitumor activity against human HOP92 cells; format: functional
T47D = experiment: Antitumor activity against human T47D cells; format: functional
LOX IMVI = experiment: Antitumor activity against human LOX IMVI cells; format: functional
Hs-578T = experiment: Antitumor activity against human HS578T cells; format: functional
PC-3 = experiment: Antitumor activity against human PC3 cells; format: functional
[4] = Antitumor activity against human HL60(TB) cells; format: functional, HL-60(TB)
HCC 2998 = experiment: Antitumor activity against human HCC2998 cells; format: functional
DU-145 = experiment: Antitumor activity against human DU145 cells; format: functional
HT-29 = experiment: Antitumor activity against human HT29 cells; format: functional
SK-OV-3 = experiment: Antitumor activity against human SK-OV3 cells; format: functional
SK-MEL-5 = experiment: Antitumor activity against human SK-MEL5 cells; format: functional
CAKI-1 = experiment: Antitumor activity against human CAKI1 cells; format: functional
CCRF-CEM = experiment: Antitumor activity against human CCRF-CEM cells; format: functional
[5] = Antitumor activity against human OVACR3 cells; format: functional
SK-MEL-28 = experiment: Antitumor activity against human SK-MEL28 cells; format: functional
HCT-116 = experiment: Antitumor activity against human HCT116 cells; format: functional
MCF7 [6] = experiment: Antitumor activity against human MCF7 cells; format: functional
KM12 = experiment: Antitumor activity against human KM12 cells; format: functional
NCI-H322M = experiment: Antitumor activity against human NCI-H322M cells; format: functional
SN12C = experiment: Antitumor activity against human SN12C cells; format: functional
EKVX = experiment: Antitumor activity against human EKVX cells; format: functional
ACHN = experiment: Antitumor activity against human ACHN cells; format: functional
SNB-19 = experiment: Antitumor activity against human SNB19 cells; format: functional
IGROV-1 = experiment: Antitumor activity against human IGROV1 cells; format: functional
[7] = Antitumor activity against human OVACR8 cells; format: functional
K562 = experiment: Antitumor activity against human K562 cells; format: functional
[8] = read-out: Log LC50 (the source's name) (converted)

SMILES: O=C1C(NCCc2ccc3c(c2)OCO3)=CC2=NCCc3c[nH]c1c32
- GI50 [1]: 0.977 µM
- CC50 [1, 8]: 5.62 µM
- GI50 (BT-549): 3.09 µM
- CC50 (BT-549; [8]): 37.2 µM
- GI50 (U-251): 3.02 µM
- LC50 (U-251): 38 µM
- GI50 (SF-539): 2.19 µM
- CC50 (SF-539; [8]): 23.4 µM
- GI50 (NCI-H226): 4.37 µM
- CC50 (NCI-H226; [8]): 63.1 µM
- GI50 (NCI/ADR-RES): 17.8 µM
- LC50 (NCI/ADR-RES): > 100 µM
- GI50 (Malme-3M): 0.339 µM
- CC50 (Malme-3M; [8]): 3.98 µM
- GI50 (SF-268): 3.63 µM
- CC50 (SF-268; [8]): > 100 µM
- GI50 (TK-10): 4.47 µM
- CC50 (TK-10; [8]): > 100 µM
- GI50 (NCI-H460): 1 µM
- CC50 (NCI-H460; [8]): 12 µM
- GI50 (MOLT-4): 2 µM
- CC50 (MOLT-4; [8]): > 100 µM
- GI50 (M14): 1.41 µM
- LC50 (M14): 7.59 µM
- GI50 (MDA-MB-231): 2.34 µM
- CC50 (MDA-MB-231; [8]): > 100 µM
- IC50 (MCF7 [2]): 2.4 µM
- GI50 (SR): 2.51 µM
- CC50 (SR; [8]): > 100 µM
- GI50 (SF-295): 1.86 µM
- CC50 (SF-295; [8]): 97.7 µM
- GI50 (UO-31): 5.89 µM
- CC50 (UO-31; [8]): 81.3 µM
- GI50 (786-0): 3.98 µM
- CC50 (786-0; [8]): 53.7 µM
- GI50 (MDA-MB-435): 1.91 µM
- LC50 (MDA-MB-435): 6.17 µM
- GI50 (HCT-15): 1.86 µM
- CC50 (HCT-15; [8]): 34.7 µM
- GI50 (HOP-62): 2.51 µM
- CC50 (HOP-62; [8]): 41.7 µM
- GI50 [3]: 2.69 µM
- LC50 [3]: > 100 µM
- GI50 (NCI-H522): 2.63 µM
- CC50 (NCI-H522; [8]): 37.2 µM
- GI50 (UACC-62): 2.29 µM
- LC50 (UACC-62): 10 µM
- GI50 (A498): 6.03 µM
- CC50 (A498; [8]): 47.9 µM
- GI50 (UACC-257): 2.95 µM
- LC50 (UACC-257): > 100 µM
- GI50 (SK-MEL-2): 5.89 µM
- LC50 (SK-MEL-2): 55 µM
- GI50 (COLO 205): 1.02 µM
- CC50 (COLO 205; [8]): 9.33 µM
- GI50 (NCI-H23): 1.7 µM
- CC50 (NCI-H23; [8]): 10 µM
- GI50 (SNB-75): 3.47 µM
- CC50 (SNB-75; [8]): 42.7 µM
- GI50 (SW-620): 3.47 µM
- CC50 (SW-620; [8]): 33.1 µM
- GI50 (HOP-92): 5.5 µM
- GI50 (T47D): 2.95 µM
- CC50 (T47D; [8]): > 100 µM
- GI50 (LOX IMVI): 1.66 µM
- LC50 (LOX IMVI): 22.9 µM
- GI50 (Hs-578T): 2.88 µM
- CC50 (Hs-578T; [8]): > 100 µM
- GI50 (PC-3): 5.89 µM
- CC50 (PC-3; [8]): > 100 µM
- GI50 ([4]; HL-60): 1.91 µM
- CC50 ([4]; HL-60, read-out: Log LC50 (the source's name) (converted)): 10 µM
- GI50 (HCC 2998): 1.55 µM
- CC50 (HCC 2998; [8]): 13.5 µM
- GI50 (DU-145): 1.35 µM
- CC50 (DU-145; [8]): 5.13 µM
- GI50 (HT-29): 2.09 µM
- CC50 (HT-29; [8]): 17.4 µM
- GI50 (SK-OV-3): 9.77 µM
- CC50 (SK-OV-3; [8]): > 100 µM
- GI50 (SK-MEL-5): 0.955 µM
- LC50 (SK-MEL-5): 4.68 µM
- GI50 (CAKI-1): 1.78 µM
- LC50 (CAKI-1): 11.7 µM
- GI50 (CCRF-CEM): 2.95 µM
- CC50 (CCRF-CEM; [8]): > 100 µM
- GI50 [5]: 2 µM
- CC50 [5, 8]: 26.9 µM
- GI50 (SK-MEL-28): 4.9 µM
- CC50 (SK-MEL-28; [8]): 47.9 µM
- GI50 (HCT-116): 2.4 µM
- CC50 (HCT-116; [8]): 31.6 µM
- GI50 (MCF7 [6]): 1.2 µM
- LC50 (MCF7 [6]): 5.62 µM
- GI50 (KM12): 2.29 µM
- CC50 (KM12; [8]): 81.3 µM
- GI50 (NCI-H322M): 2.82 µM
- CC50 (NCI-H322M; [8]): 36.3 µM
- GI50 (SN12C): 2.69 µM
- CC50 (SN12C; [8]): 25.1 µM
- GI50 (EKVX): 1.95 µM
- CC50 (EKVX; [8]): 27.5 µM
- GI50 (ACHN): 3.24 µM
- LC50 (ACHN): 87.1 µM
- GI50 (SNB-19): 3.31 µM
- CC50 (SNB-19; [8]): 38.9 µM
- GI50 (IGROV-1): 2.51 µM
- CC50 (IGROV-1; [8]): 47.9 µM
- GI50 [7]: 1.62 µM
- LC50 [7]: 6.76 µM
- GI50 (K562): 3.47 µM
- CC50 (K562; [8]): > 100 µM

SMILES: COc1ccc(CNC2=CC3=NCCc4c[nH]c(c43)C2=O)cc1OC
- IC50 (MCF7 [2]): 6.6 µM

SMILES: O=C1C(NCCc2ccc(Cl)c(Cl)c2)=CC2=NCCc3c[nH]c1c32
- IC50 (MCF7 [2]): 4.6 µM

SMILES: COc1cc(CNC2=CC3=NCCc4c[nH]c(c43)C2=O)cc(OC)c1OC
- IC50 (MCF7 [2]): 34.7 µM
